US8362000B2, “Azetidinyl diamides as monoacylglycerol lipase inhibitors” (Janssen Pharmaceutica NV, priority 2009, dated 2013)
Residue numbers refer to the chain shown, from its start. Read-outs that look alike come from different tables or passages of the source.

Tests used:
[1] = target: T1, purified wild type MGL (wt-MGLL 6H-11-313) (Homo sapiens, UniProt Q99685)
T1 sequence (Q99685 1-303): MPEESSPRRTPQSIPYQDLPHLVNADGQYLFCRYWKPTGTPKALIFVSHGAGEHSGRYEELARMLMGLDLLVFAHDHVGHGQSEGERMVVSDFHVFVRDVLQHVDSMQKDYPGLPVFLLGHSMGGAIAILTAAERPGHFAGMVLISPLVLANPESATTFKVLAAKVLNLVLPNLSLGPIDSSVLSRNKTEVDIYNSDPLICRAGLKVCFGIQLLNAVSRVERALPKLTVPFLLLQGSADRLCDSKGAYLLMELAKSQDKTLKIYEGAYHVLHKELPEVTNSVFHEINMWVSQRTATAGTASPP

mutant MGL = target: T2, mutant MGL (Homo sapiens, UniProt Q99685, L169S/L176S); test: MGL ThermoFluor assay - mutant; format: binding
T2 sequence (Q99685 1-303 L169S/L176S): T1 sequence (Q99685 1-303) with L169S, L176S

[2] = compound concentration measured by qNMR, read-out: MGL mutant ThermoFluor qKd (using qNMR conc.)
[3] = ThermoFluor concentration-response, read-out: MGL mutant ThermoFluor Kd
[4] = ThermoFluor thermal stability binding assay, read-out: MGL mutant ThermoFluor Kd
[5] = ThermoFluor, compound concentration measured by qNMR, read-out: MGL mutant ThermoFluor qKd (using qNMR conc.)

Cc1nc2cc(C(=O)N3CC(N4CCN(C(=O)c5cscn5)CC4)C3)ccc2n1CCC(F)(F)F [Cpd 866]
IC50 [1]: 10300 nM | Kd (mutant MGL; [2]): 0.824 µM

O=C(c1ccc2c(c1)[nH]c(=O)n2-c1ccccc1)N1CC(N2CCN(C(=O)c3nccs3)CC2)C1 [Cpd 933, 1-Phenyl-5-({3-[4-(1,3-thiazol-2-ylcarbonyl)piperazin-1-yl]azetidin-1-yl}carbonyl)-1,3-dihydro-2H-benzimidazol-2-one]
IC50 [1]: 191 nM | Kd (mutant MGL; [3]): 0.034 µM

O=C(c1ccccc1)N1CCN(C2CN(C(=O)c3cccc4[nH]c(-c5ccc(Cl)cc5)nc34)C2)CC1 [Cpd 607]
IC50 [1]: 2900 nM | Kd (mutant MGL; [4]): 1 µM

O=C(c1ccc2c(c1)[nH]c(=O)n2-c1ccc(C(F)(F)F)cc1)N1CC(N2CCN(C(=O)c3cscn3)CC2)C1 [Cpd 942]
IC50 [1]: 216 nM | Kd (mutant MGL; [3]): 0.135 µM

O=C(c1ccc2c(c1)[nH]c(=O)n2-c1ccc(C(F)(F)F)cc1)N1CC(N2CCN(C(=O)c3nccs3)CC2)C1 [Cpd 936]
IC50 [1]: 13 nM | Kd (mutant MGL; [3]): 0.012 µM

Cn1cc(-c2cccc(F)c2)c2ccc(C(=O)N3CC(N4CCN(C(=O)c5nccs5)CC4)C3)cc21 [Cpd 1142]
IC50 [1]: 29 nM | Kd (mutant MGL; [2]): 0.001 µM

O=C(c1ccc2c(ccn2-c2ccc(Cl)c(F)c2)c1)N1CC(N2CCN(C(=O)c3nccs3)CC2)C1 [Cpd 1372]
IC50 [1]: < 5 nM | Kd (mutant MGL; ThermoFluor, compound concentration measured by qNMR, read-out: MGL mutant ThermoFluor qKd (μM) (using qNMR conc.)): 0.002 µM

O=C(c1ccc2c(ccn2Cc2ccncc2)c1)N1CC(N2CCN(C(=O)c3nccs3)CC2)C1 [Cpd 1046]
IC50 [1]: 288 nM | Kd (mutant MGL; [2]): 0.064 µM

CCCCC/C=C\C/C=C\CCCCCCCC(=O)N1CC(N2CCN(C(=O)c3nccs3)CC2)C1 [Cpd 638]
IC50 [1]: 189 nM | Kd (mutant MGL; [3]): 0.172 µM | Kd (mutant MGL; [5]): 0.264 µM

Cc1cc(Br)ccc1C(=O)N1CC(N2CCN(C(=O)c3nccs3)CC2)C1 [Cpd 786]
IC50 [1]: 1200 nM | Kd (mutant MGL; [5]): 0.665 µM

O=C(c1ccc(-c2ccccc2)cc1)N1CCN(C2CN(C(=O)c3csnn3)C2)CC1 [Cpd 1276, 1-(Biphenyl-4-ylcarbonyl)-4-[1-(1,2,3-thiadiazol-4-ylcarbonyl)azetidin-3-yl]piperazine]
IC50 [1]: 1760 nM | Kd (mutant MGL; [3]): 0.807 µM

O=C(c1nccs1)N1CCN(C2CN(C(=O)c3cn(Cc4ccccc4)c4ccccc34)C2)CC1 [Cpd 993]
IC50 [1]: 1510 nM | Kd (mutant MGL; [3]): 0.333 µM

C[C@@H]1CN(C2CN(C(=O)c3cc4ccc(C(F)(F)F)cc4s3)C2)C[C@H](C)N1C(=O)c1nccs1 [Cpd 954, (2R,6S)-2,6-Dimethyl-1-(1,3-thiazol-2-ylcarbonyl)-4-(1-{[6-(trifluoromethyl)-1-benzothiophen-2-yl]carbonyl}azetidin-3-yl)piperazine]
IC50 [1]: 2740 nM | Kd (mutant MGL; [5]): 3.44 µM

O=C(c1ccc2c(c1)[nH]c(=O)n2CC(F)(F)F)N1CC(N2CCN(C(=O)c3cscn3)CC2)C1 [Cpd 943]
IC50 [1]: 10400 nM | Kd (mutant MGL; [3]): 1.05 µM

Cc1cc(-n2ccc3cc(C(=O)N4CC(N5CCN(C(=O)c6ccccc6)CC5)C4)ccc32)ccn1 [Cpd 630, 1-(2-Methylpyridin-4-yl)-5-({3-[4-(phenylcarbonyl)piperazin-1-yl]azetidin-1-yl}carbonyl)-1H-indole]
IC50 [1]: 714 nM | Kd (mutant MGL; [5]): 0.195 µM

O=C(c1ccc(-c2ccccc2)cc1)N1CC(N2CCN(C(=O)c3c[nH]c4ccccc34)CC2)C1 [Cpd 1308]
IC50 [1]: 9280 nM | Kd (mutant MGL; [4]): 2.06 µM

O=C(c1ccccc1)N1CCN(C2CN(C(=O)c3ccc4c(ccn4-c4ccc(Cl)cn4)c3)C2)CC1 [Cpd 629, 1-(5-Chloropyridin-2-yl)-5-({3-[4-(phenylcarbonyl)piperazin-1-yl]azetidin-1-yl}carbonyl)-1H-indole]
IC50 [1]: 53 nM | Kd (mutant MGL; [3]): 0.145 µM

O=C(c1ccc(SCc2cccc(C(F)(F)F)c2)cc1)N1CC(N2CCN(C(=O)C(F)(F)F)CC2)C1 [Cpd 974]
IC50 [1]: 177 nM | Kd (mutant MGL; [2]): 1.78 µM

O=C(c1ccc2nc(C(F)(F)F)cc(Cl)c2c1)N1CCN(C2CN(C(=O)c3cscn3)C2)CC1 [Cpd 859]
IC50 [1]: 8820 nM | Kd (mutant MGL; [3]): 1.43 µM

Cc1c(C(=O)N2CCN(C3CN(C(=O)c4ccc[nH]4)C3)CC2)sc2cc(C(F)(F)F)ccc12 [Cpd 731]
IC50 [1]: 238 nM | Kd (mutant MGL; [3]): 0.016 µM
